The source of these data is US20240082208A1 (priority 2021, published 2024).

The structures appear in SMILES notation.

The subject of one assay is dengue virus. The assay is described as follows: In vitro dengue virus infection of Vero cells, viral RNA titer by qRT-PCR. In kind it is cell-based. To be noted: 40 μM, 48 hours after infection. As to the method: In order to evaluate the antiviral effect of irosustat in vitro, an additional experiment was performed in which Vero cells were infected with dengue virus. 16 hours before viral infection, cells were pre-treated with irosustat at a concentration of 0 μM, 20 μM or 40 μM, and 1 hour thereafter, the medium was replaced with a cell culture medium containing the drug. 48 hours after infection with the virus, the viral RNA titer of dengue virus in the cell culture medium was measured through qRT-PCR, and the results are shown in FIG. 3.

For assay [1], the system named is severe acute respiratory syndrome virus (SARS; SARS-CoV-2). Set-up: species or system K18-ACE2 TG mice. The conditions noted are these: mouse, in vivo.

Regarding `NS(=O)(=O)Oc1ccc2c3c(c(=O)oc2c1)CCCCC3` [irosustat, (6-oxo-8,9,10,11-tetrahydro-7H-cyclohepta[c]chromen-3-yl)sulfamate], the “decrease of virus titer” value with dengue virus is reported as at least 50%. Moreover, the “viral titer in the lung tissue, lower than vehicle” value in assay [1] is on record as “about 77%”.
